Assay [1] relates to PMCs. Put plainly: Degranulation of PMCs (β-hexosaminidase release rate). The format is cell-based, mouse. The settings on record: for Degranulation of PMCs by the stimulant alone: 37° C. 10 minutes, DNP-HSA on IgE-sensitized PMCs, BzATP 10 uM; for Effect on IgE receptor stimulation or degranulation by C48/80: α,β-methyl mATP 10 uM, ADP 100 uM, UDP-Glucose 100 uM.
Assay [2] concerns PMCs derived from P2X4 receptor-deficient mice. Put plainly: Degranulation of PMCs derived from P2X4 receptor-deficient mice. The format is cell-based, mouse. The note with it: DNP-HSA or C48/80 stimulation with 100 uM ATP. On the procedure:
The abdominal cavity of wild-type C57BL/6 mice (7- to 8-week-old, male; n=4) or P2X4 receptor-deficient mice (7- to 8-week-old, male; n=4) was washed with 4 mL of RPMI1640 medium to prepare peritoneal cells. The cells were cultured in RPMI1640 medium containing 10% FBS, penicillin (100 unit/ml), streptomycin (100 μg/ml), recombinant mouse IL-3 (10 ng/ml, manufactured by PeproTech, Inc.), and 10 ng/mL of SCF (manufactured by PeproTech, Inc.) for 14 days to be used for the experiment. 95% or more of the prepared PMCs were double positive for c-KIT and FcεRI (FACSCant II, manufactured by BD Biosciences).
Anti-DNP-IgE antibody (clone: SPE-7, manufactured by Sigma-Aldrich, Inc.) was added to a culture solution containing PMCs derived from wild-type C57BL/6 mice or P2X4 receptor-deficient mice so that the concentration reached 50 ng/ml, and the PMCs were sensitized overnight. The PMCs were washed with PBS(−) and suspended in Krebs Ringer-HEPES Buffer containing 0.1% BSA (NaCl 130 mM, KCl 4.7 mM, NaHCO3 4.0 mM, KH2P4 1.2 mM, Glucose 11.5 mM, HEPES 10 mM, and CaCl2—H2O 1.8 mM) so that the concentration reached 1×10^6 cell/mL. […] 50 mM carbonate buffer (pH 10.0, 100 uL) was added to stop the enzyme reaction of β-hexosaminidase, and absorbance was measured at 405/655 nm using an absorbance microplate reader Sunrise (manufactured by Tecan Trading AG). […]

The test system of assay [3] is wild-type C57BL/6 mice. The experiment in a line: Passive systemic anaphylaxis caused by C48/80 (rectal temperature). The format is in vivo, mouse. The settings on record: 10 mg/kg intraperitoneally 15 minutes before C48/80 (50 μg i.v.); vs vehicle; listed as Compound B. On the procedure:
Wild-type C57BL/6 mice (9-week-old, male; n=8) and P2X4 receptor-deficient mice (10-week-old, male; n=7) were intravenously administered with 100 μL of physiological saline containing 50 μg of C48/80 (manufactured by Sigma-Aldrich, Inc.). Thereafter, the rectal temperatures of the mice were measured with a digital thermometer (manufactured by Physitemp Instruments, LLC.) every 5 minutes for a period of 60 minutes.
Compound B, a P2X4 receptor antagonist, was used after being dissolved in physiological saline at a concentration of 10 mg/ml. In a passive systemic anaphylaxis test using the wild-type C57BL/6 mice of Example 1-1), 10 mg/kg of Compound B or a solvent thereof (vehicle) was intraperitoneally administered 15 minutes before administration of C48/80. […] From this, it was considered that the symptom of the pseudo-allergy can be reduced by the P2X4 receptor antagonist.

Where [4] appears, read: wild-type PMCs, C48/80 10 uM, Substance P 100 uM, PAMP-12 10 uM, vancomycin 1 mM.
Where [5] appears, read: dose dependency, DNP-HSA 0, 1, 5, or 10 μg/mL.

Entries after “also recorded” stand apart in the source; their conditions may differ.

In the case of “Proadrenomedullin N-terminal 20 peptide [PAMP-12]”, in assay [1] (setting [4]), the “Degranulation of PMCs by the stimulant alone” value is “induced”.

Regarding `Nc1ncnc2c1ncn2[C@@H]1O[C@H](COP(=O)(O)OP(=O)(O)OP(=O)(O)O)[C@@H](O)[C@H]1O` [ATP], the “Effect of ATP on degranulation of PMCs by MrgprB2 stimulation with C48/80” value in assay [1] (100 uM ATP, C48/80 10 uM, wild-type PMCs) is given as “significantly promoted”. In assay [1] (100 uM ATP, IgE (SPE-7)-sensitized wild-type PMCs), the “Effect of ATP on degranulation of PMCs by IgE receptor stimulation (DNP-HSA)” value was “significantly promoted”. In assay [1] (C48/80 0, 1, 10, or 100 uM), the “Effect of ATP on dose dependency of degranulation by MrgprB2 stimulation with C48/80” value was “enhanced the maximum response; also recorded: significantly increased the degree of degranulation”. Also, the “Effect of ATP on degranulation of PMCs by Substance P, PAMP-12 and vancomycin” value in assay [1] (Substance P 100 uM, PAMP-12 10 uM, vancomycin 1 mM) was “promoted; also recorded: enhanced”. Moreover, in assay [1] (setting [5]), the “Effect of ATP on degranulation by IgE receptor stimulation, DNP-HSA at a high concentration” value is listed as “not observed” and the “Effect of ATP on degranulation by IgE receptor stimulation, DNP-HSA at a low concentration” value is reported as “promoted degranulation”. The “Effect of promoting degranulation of ATP in P2X4 receptor-deficient PMCs” value in assay [2] is given as “not observed”.

Take `Nc1ncnc2c1ncn2[C@@H]1O[C@H](COP(=O)(O)OP(=O)(O)O)[C@@H](O)[C@H]1O` [ADP]: in assay [1], the “Effect on IgE receptor stimulation or degranulation by C48/80” value was “did not affect”.

Substance P: the “Degranulation of PMCs by the stimulant alone” value in assay [1] (setting [4]) is recorded as “induced”.

With `Nc1ncnc2c1ncn2[C@@H]1O[C@H](COP(=O)(O)CP(=O)(O)OP(=O)(O)O)[C@@H](O)[C@H]1O` [α,β-methyl mATP], the “Effect on IgE receptor stimulation or degranulation by C48/80” value in assay [1] was “did not affect”.

For `O=C1CC(=O)N(c2ccc(NC(=O)c3ccccc3I)cc2)c2ccc3ccccc3c2N1` [Compound B48, 5-[4-(2-iodobenzoylamino)phenyl]-1H-naphtho[1,2-b][1,4]diazepine-2,4(3H,5H)-dione], the “Suppression of the decrease in rectal temperature by C48/80” value in assay [3] is on record as “significantly suppressed”. Also, in assay [1] (Compound at 10 uM before the degranulation reaction, C48/80 10 uM with or without 100 uM ATP, vs vehicle, listed as Compound B), the “Suppression of the promotion of degranulation of PMCs by ATP” value is recorded as “significantly suppressed”.

For the compound `CN[C@H](CC(C)C)C(=O)N[C@H]1C(=O)N[C@@H](CC(N)=O)C(=O)N[C@H]2C(=O)N[C@H]3C(=O)N[C@H](C(=O)N[C@H](C(=O)O)c4cc(O)cc(O)c4-c4cc3ccc4O)[C@H](O)c3ccc(c(Cl)c3)Oc3cc2cc(c3O[C@@H]2O[C@H](CO)[C@@H](O)[C@H](O)[C@H]2O[C@H]2C[C@](C)(N)[C@H](O)[C@H](C)O2)Oc2ccc(cc2Cl)[C@H]1O` [vancomycin], the “Degranulation of PMCs by the stimulant alone” value in assay [1] (setting [4]) is “induced”.

For BzATP, the “Degranulation of PMCs by the stimulant alone” value in assay [1] (setting [4]) was “induced degranulation”.
